# Test results as given in patent US20180251847A1, “METHOD OF PREDICTING THE TUMOR RESPONSE TO DNA METHYLATION INHIBITORS AND ALTERNATIVE THERAPEUTIC REGIMEN FOR OVERCOMING RESISTANCE” (PALACKY UNIVERSITY, OLOMOUC, priority 2014, published 2018).
# Counter-ions that a name gives are not always drawn. Like-named read-outs stand apart in the source and are kept apart here.
# What was measured:
# Design in all cases: species or system human
# [1] = system: R2.2 (HCT116-RDAC); test: MTT based cell survival assay, DAC resistant HCT116 clone R2.2; settings: for IC50: read-out: Mean IC50; for fold change (resistance index): IC50 R2.2 / IC50 HCT116
# Protocol: (§1) The DAC resistant HCT116 cell lines were developed using two methods.
# (§2) The method is primarily based on reduction of yellow colored tetrazolium salt, 3-(4,5-dimethylthiazol-2-yl)-2,5-diphenyltetrazolium bromide (MTT) to insoluble purple colored formazan crystals by NAD(P)H-dependent oxidoreductase enzymes in mitochondria of the viable cell.
# (§3) Cells in 80 μL of medium were plated in each of the experimental and the control wells, followed by addition of 20 μL medium with five-fold drug concentration to experimental wells. The wells with medium alone were included alongside as blank for absorbance readings. After 72 h of drug treatment, 10 μL MTT (Sigma-Aldrich) prepared in 1×PBS (5 mg/mL) was added to all wells including blank and control, and incubated until the purple formazan crystals were visible after which 100 μL of detergent (10% SDS, pH: 5.5) was added and the plates were incubated overnight to solubilize the formazan and the cellular material.
# (§4) Cross resistance was determined as the fold increase, whereas, the sensitivity was determined as the fold decrease in the IC50 of the drugs for the resistant cell lines compared to their genetically identical drug sensitive counterpart.
# [2] = system: HCT116; test: MTT based cell survival assay, parental HCT116; settings: read-out: Mean IC50
# Protocol: To study the mechanism of resistance towards DNA methylation inhibitor, 2′-deoxy-5-azacytidine, we used the human colorectal cancer cell line (HCT116), human promyelocytic leukemia cells (HL-60), and human breast adenocarcinoma cell line (MCF-7) obtained from American Type Culture Collection (Manassas, Va.). The cell lines were cultured in complete growth media (Sigma-Aldrich, St. Louis, Mo.), supplemented with fetal bovine serum (FBS, PAN-Biotech GmbH, Aidenbach, Germany), 100 U/mL penicillin (Biotika, Slovenská L'upča, Slovak Republic) and 50 μg/mL streptomycin (Sigma-Aldrich), and the cultures were maintained at 37° C. and 5% CO2, in a humidified incubator. The cell line, HCT116 was grown in McCoy's 5 A medium supplemented with 10% FBS and 3 mM L-glutamine (Sigma-Aldrich), HL-60 was grown in Iscove's Modified Dulbecco's Medium with 20% FBS, and MCF-7 was grown in RPMI-1640 medium with 10% FBS.
# The method is primarily based on reduction of yellow colored tetrazolium salt, 3-(4,5-dimethylthiazol-2-yl)-2,5-diphenyltetrazolium bromide (MTT) to insoluble purple colored formazan crystals by NAD(P)H-dependent oxidoreductase enzymes in mitochondria of the viable cell. The intensity of the purple color produced on solubilization of the formazan crystals is directly proportional to the number of viable cells (Meerloo J. V. et al., Methods in Molecular Biology 2011; 731, 237-45).
# as §3, with “To determine the IC50 of the epigenetic drugs (Tocris Bioscience, Bristol, United Kingdom), four independent experiments were performed using triplicate wells of 96 well plates. Cells” for “Cells”, “[…],” for “After 72 h of drug treatment,”
# as §4
# [3] = system: R2.1 (HCT116-RDAC); test: MTT based cell survival assay, DAC resistant HCT116 clone R2.1; settings: for IC50: R2.1, MTT, 72 h drug treatment; for fold change (resistance index): IC50 R2.1 / IC50 HCT116
# Protocol: as §1, §2, §3, §4
# [4] = system: R1.4 (HCT116-RDAC); test: MTT based cell survival assay, DAC resistant HCT116 clone R1.4; settings: for IC50: read-out: Mean IC50; for fold change (resistance index): IC50 R1.4 / IC50 HCT116
# Protocol: as §1, §2, §3, §4
# [5] = system: R1.2 (HCT116-RDAC); test: MTT based cell survival assay, DAC resistant HCT116 clone R1.2; settings: for IC50: read-out: Mean IC50; for fold change (resistance index): IC50 R1.2 / IC50 HCT116
# Protocol: as §1, §2, §3, §4
# [6] = system: R1.3 (HCT116-RDAC); test: MTT based cell survival assay, DAC resistant HCT116 clone R1.3; settings: for IC50: read-out: Mean IC50; for fold change (resistance index): IC50 R1.3 / IC50 HCT116
# Protocol: as §1, §2, §3, §4
# [7] = system: R1.1 (HCT116-RDAC); test: MTT based cell survival assay, DAC resistant HCT116 clone R1.1; settings: for IC50: read-out: Mean IC50; for fold change (resistance index): IC50 R1.1 / IC50 HCT116
# Protocol: as §1, §2, §3, §4
# [8] = HCT116 parental, MTT, 72 h drug treatment
# [9] = Homo sapiens, HCT-116, R2.2, MTT, 72 h drug treatment
# [10] = Homo sapiens, HCT-116, HCT116 parental, MTT, 72 h drug treatment
# [11] = Homo sapiens, HCT-116, R1.4, MTT, 72 h drug treatment
# [12] = Homo sapiens, HCT-116, R1.2, MTT, 72 h drug treatment
# [13] = Homo sapiens, HCT-116, R1.3, MTT, 72 h drug treatment
# [14] = Homo sapiens, HCT-116, R1.1, MTT, 72 h drug treatment
SMILES,fold change (resistance index) [1],"IC50 ([3]; Homo sapiens, HCT-116) [µM]",fold change (resistance index) [3],fold change (resistance index) [4],fold change (resistance index) [5],fold change (resistance index) [6],fold change (resistance index) [7],"IC50 ([1]; R2.2, MTT, 72 h drug treatment) [µM]","IC50 [2, 8] [µM]",IC50 [3] [µM],"IC50 ([4]; R1.4, MTT, 72 h drug treatment) [µM]","IC50 ([5]; R1.2, MTT, 72 h drug treatment) [µM]","IC50 ([6]; R1.3, MTT, 72 h drug treatment) [µM]","IC50 ([7]; R1.1, MTT, 72 h drug treatment) [µM]",also measured
C/C=C1\NC(=O)[C@H]2CSSCC/C=C/[C@H](CC(=O)N[C@H](C(C)C)C(=O)N2)OC(=O)[C@H](C(C)C)NC1=O [Romidepsin],(2.64) fold,0.0054,(1.95) fold,(1.14) fold,(1.77) fold,(1.18) fold,(1.14) fold,–,–,–,–,–,–,–,"IC50 ([1]; Homo sapiens, HCT-116, 72 h): 0.0073 µM; IC50 ([2]; Homo sapiens, HCT-116, 72 h): 0.0028 µM; IC50 ([4]; Homo sapiens, HCT-116, 72 h): 0.0031 µM; IC50 ([5]; Homo sapiens, HCT-116, 72 h): 0.0049 µM; IC50 ([6]; Homo sapiens, HCT-116, 72 h): 0.0033 µM; IC50 ([7]; Homo sapiens, HCT-116, 72 h): 0.0031 µM"
O=C(O)c1ccc(O)c2ncccc12 [IOX1],(1.93) fold,–,(1.70) fold,(1.96) fold,(2.15) fold,(1.80) fold,(1.41) fold,57,29.6,50.2,58.1,63.6,53.2,41.6,–
CCOC(=O)CCNc1cc(N2CCc3ccccc3CC2)nc(-c2ccccn2)n1 [GSK J4],(1.87) fold,–,(2.11) fold,(1.34) fold,(1.30) fold,(1.39) fold,(1.52) fold,4.25,2.28,4.81,3.05,2.95,3.18,3.45,–
O=c1ncccn1[C@@H]1O[C@H](CO)[C@@H](O)[C@H]1O [Zebularine],(1.19) fold,≥ 100,(1.19) fold,(1.19) fold,(1.19) fold,(1.19) fold,(1.19) fold,–,–,–,–,–,–,–,"IC50 [1, 9]: ≥ 100 µM; IC50 [2, 10]: 84.2 µM; IC50 [4, 11]: ≥ 100 µM; IC50 [5, 12]: ≥ 100 µM; IC50 [6, 13]: ≥ 100 µM; IC50 [7, 14]: ≥ 100 µM"
"Nc1ncn([C@@H]2O[C@H](CO)[C@@H](O)[C@H]2O)c(=O)n1 [AZA, 5-azacytidine]",(4.19) fold,12.3,(4.07) fold,(4.92) fold,(3.87) fold,(3.50) fold,(3.10) fold,–,–,–,–,–,–,–,"IC50 [1, 9]: 14.5 µM; IC50 [2, 10]: 3.02 µM; IC50 [4, 11]: 14.9 µM; IC50 [5, 12]: 11.7 µM; IC50 [6, 13]: 10.6 µM; IC50 [7, 14]: 9.36 µM"
"COc1cc2c(cc1-c1c(C)noc1C)ncc1[nH]c(=O)n([C@H](C)c3ccccn3)c12 [I-BET 151, I-BET 151 hydrochloride]",–,3.16,–,–,–,–,–,–,–,–,–,–,–,–,"IC50 ([1]; Homo sapiens, HCT-116, 72 h): 5.4 µM; fold change (sensitivity index) ([1]; IC50 HCT116 / IC50 R2.2): (0.97) fold; IC50 ([2]; Homo sapiens, HCT-116, 72 h): 5.23 µM; fold change (sensitivity index) ([3]; IC50 HCT116 / IC50 R2.1): (1.65) fold; IC50 ([4]; Homo sapiens, HCT-116, 72 h): 3.58 µM; fold change (sensitivity index) ([4]; IC50 HCT116 / IC50 R1.4): (1.46) fold; IC50 ([5]; Homo sapiens, HCT-116, 72 h): 5.18 µM; fold change (sensitivity index) ([5]; IC50 HCT116 / IC50 R1.2): (1.01) fold; IC50 ([6]; Homo sapiens, HCT-116, 72 h): 1.6 µM; fold change (sensitivity index) ([6]; IC50 HCT116 / IC50 R1.3): (3.28) fold; IC50 ([7]; Homo sapiens, HCT-116, 72 h): 2.68 µM; fold change (sensitivity index) ([7]; IC50 HCT116 / IC50 R1.1): (1.95) fold"
"CCCCCCCCCCCCCCCc1cccc(O)c1C(=O)O [Ancardic acid, Anacardic acid]",(1.04) fold,–,(1.03) fold,(1.02) fold,(1.06) fold,(1.04) fold,(1.07) fold,125,120,124,122,127,125,128,–
"Cl.Nc1nccc2c1ncn2[C@@H]1C=C(CO)[C@@H](O)[C@H]1O [DZNep, 3-Deazaneplanocin A hydrochloride]",(30.34) fold,–,(30.34) fold,(30.34) fold,(30.34) fold,(30.34) fold,(30.34) fold,–,0.82,–,–,–,–,–,–
CC1=NN(c2ccc(C(=O)O)cc2)C(=O)/C1=C\c1ccc(-c2cc(C)c(C)cc2[N+](=O)[O-])o1 [C646],(1.64) fold,–,(1.52) fold,(1.53) fold,(1.51) fold,(1.42) fold,(1.35) fold,55,33.5,51,51.3,50.6,47.5,45.1,–
